Data reported in PMC6917776, “Discovery of a chemical probe for PRDM9” (Nature Communications, 2019).
Where two headings read alike, the source gives them in different places.

Experiment: CelltiterGlo viability cell assay
Format: cell-based
Details: human
Outline: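 Dose range 0.01 μM to 30 μM, exposure 3 or 6 days. Read-out: CelltiterGlo, as a percentage of DMSO vehicle, averaged over three biological replicates with SEM.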

[1] = CAL851 breast cancer cells, CAL851, 3 day, read-out: viability Average
[2] = CAL851 breast cancer cells, CAL851, 3 day, read-out: viability Replicate 1
[3] = CAL851 breast cancer cells, CAL851, 3 day, read-out: viability Replicate 2
[4] = CAL851 breast cancer cells, CAL851, 3 day, read-out: viability Replicate 3
[5] = CAL851 breast cancer cells, CAL851, 6 day, read-out: viability Average
[6] = CAL851 breast cancer cells, CAL851, 6 day, read-out: viability Replicate 1
[7] = CAL851 breast cancer cells, CAL851, 6 day, read-out: viability Replicate 2
[8] = CAL851 breast cancer cells, CAL851, 6 day, read-out: viability Replicate 3
[9] = CAL851 cells, CAL851, 3 day, read-out: viability Replicate 1
[10] = CAL851 cells, CAL851, 3 day, read-out: viability Replicate 2
[11] = HCC1143 breast cancer cells, HCC1143, 3 day, read-out: viability Average
[12] = HCC1143 breast cancer cells, HCC1143, 3 day, read-out: viability Replicate 1
[13] = HCC1143 breast cancer cells, HCC1143, 3 day, read-out: viability Replicate 2
[14] = HCC1143 breast cancer cells, HCC1143, 3 day, read-out: viability Replicate 3
[15] = HCC1143 breast cancer cells, HCC1143, 6 day, read-out: viability Average
[16] = HCC1143 breast cancer cells, HCC1143, 6 day, read-out: viability Replicate 1
[17] = HCC1143 breast cancer cells, HCC1143, 6 day, read-out: viability Replicate 2
[18] = HCC1143 breast cancer cells, HCC1143, 6 day, read-out: viability Replicate 3
[19] = HCC1806 breast cancer cells, HCC1806, 3 day, read-out: viability Average
[20] = HCC1806 breast cancer cells, HCC1806, 3 day, read-out: viability Replicate 1
[21] = HCC1806 breast cancer cells, HCC1806, 3 day, read-out: viability Replicate 2
[22] = HCC1806 breast cancer cells, HCC1806, 3 day, read-out: viability Replicate 3
[23] = HCC1806 breast cancer cells, HCC1806, 6 day, read-out: viability Average
[24] = HCC1806 breast cancer cells, HCC1806, 6 day, read-out: viability Replicate 1
[25] = HCC1806 breast cancer cells, HCC1806, 6 day, read-out: viability Replicate 2
[26] = HCC1806 breast cancer cells, HCC1806, 6 day, read-out: viability Replicate 3
[27] = HCC1806 cells, HCC1806, 3 day, read-out: viability Average
[28] = HCC1806 cells, HCC1806, 3 day, read-out: viability Replicate 1
[29] = HCC1806 cells, HCC1806, 3 day, read-out: viability Replicate 2
[30] = HCC1806 cells, HCC1806, 3 day, read-out: viability Replicate 3

## COc1cc(OC)cc(-c2noc(N3CCN(C)C4(CCN(c5ccnc(C)c5)CC4)C3)n2)c1 [MRK-740]
[1]
  viability at 3 day, 0.01 µM: 95.7%
  viability at 3 day, 0.03 µM: 94.4%
  viability at 3 day, 0.3 µM: 98.9%
  viability at 3 day, 1 µM: 98%
  viability at 3 day, 3 µM: 88%
  viability at 3 day, 9.5 µM: 72%
  viability at 3 day, 30 µM: 21.2%
[2]
  viability at 3 day, 0.01 µM: 91.6%
  viability at 3 day, 0.03 µM: 93.2%
  viability at 3 day, 1 µM: 88.2%
  viability at 3 day, 3 µM: 88.9%
  viability at 3 day, 9.5 µM: 69.7%
  viability at 3 day, 30 µM: 18.4%
[3]
  viability at 3 day, 0.01 µM: 94.6%
  viability at 3 day, 0.03 µM: 92.2%
  viability at 3 day, 1 µM: 93.7%
  viability at 3 day, 3 µM: 78.6%
  viability at 3 day, 9.5 µM: 68.9%
  viability at 3 day, 30 µM: 24.5%
[4]
  viability at 3 day, 0.01 µM: 101%
  viability at 3 day, 0.03 µM: 97.9%
  viability at 3 day, 0.3 µM: 104%
  viability at 3 day, 1 µM: 112%
  viability at 3 day, 3 µM: 96.5%
  viability at 3 day, 9.5 µM: 77.4%
  viability at 3 day, 30 µM: 20.7%
[5]
  viability at 6 day, 0.01 µM: 113%
  viability at 6 day, 0.03 µM: 114%
  viability at 6 day, 0.1 µM: 129%
  viability at 6 day, 0.3 µM: 118%
  viability at 6 day, 1 µM: 117%
  viability at 6 day, 3 µM: 100%
  viability at 6 day, 9.5 µM: 73.1%
  viability at 6 day, 30 µM: 14.9%
[6]
  viability at 6 day, 0.01 µM: 109%
  viability at 6 day, 0.03 µM: 103%
  viability at 6 day, 0.1 µM: 116%
  viability at 6 day, 0.3 µM: 121%
  viability at 6 day, 1 µM: 109%
  viability at 6 day, 3 µM: 93.2%
  viability at 6 day, 9.5 µM: 59.9%
  viability at 6 day, 30 µM: 22.8%
[7]
  viability at 6 day, 0.01 µM: 118%
  viability at 6 day, 0.03 µM: 114%
  viability at 6 day, 0.1 µM: 126%
  viability at 6 day, 0.3 µM: 117%
  viability at 6 day, 1 µM: 108%
  viability at 6 day, 3 µM: 104%
  viability at 6 day, 9.5 µM: 75.6%
  viability at 6 day, 30 µM: 11.9%
[8]
  viability at 6 day, 0.01 µM: 113%
  viability at 6 day, 0.03 µM: 126%
  viability at 6 day, 0.1 µM: 145%
  viability at 6 day, 0.3 µM: 115%
  viability at 6 day, 1 µM: 134%
  viability at 6 day, 3 µM: 104%
  viability at 6 day, 9.5 µM: 83.9%
  viability at 6 day, 30 µM: 10%
CAL851 cells, CAL851, 3 day, read-out: viability Average
  viability at 3 day, 0.1 µM: 99.9%
[9]
  viability at 3 day, 0.1 µM: 97.5%
  viability at 3 day, 0.3 µM: 94.7%
[10]
  viability at 3 day, 0.1 µM: 91.8%
  viability at 3 day, 0.3 µM: 97.8%
CAL851 cells, CAL851, 3 day, read-out: viability Replicate 3
  viability at 3 day, 0.1 µM: 111%
[11]
  viability at 3 day, 0.01 µM: 96.2%
  viability at 3 day, 0.03 µM: 94.8%
  viability at 3 day, 0.3 µM: 98.1%
  viability at 3 day, 1 µM: 97.8%
  viability at 3 day, 3 µM: 92.9%
  viability at 3 day, 9.5 µM: 71.7%
  viability at 3 day, 30 µM: 25.7%
[12]
  viability at 3 day, 0.01 µM: 100%
  viability at 3 day, 0.03 µM: 92.9%
  viability at 3 day, 0.3 µM: 99.7%
  viability at 3 day, 1 µM: 101%
  viability at 3 day, 3 µM: 94.7%
  viability at 3 day, 9.5 µM: 73.8%
  viability at 3 day, 30 µM: 27.4%
[13]
  viability at 3 day, 0.01 µM: 94.8%
  viability at 3 day, 0.03 µM: 94.1%
  viability at 3 day, 0.3 µM: 97.7%
  viability at 3 day, 1 µM: 93.9%
  viability at 3 day, 3 µM: 91%
  viability at 3 day, 9.5 µM: 69.4%
  viability at 3 day, 30 µM: 27.1%
[14]
  viability at 3 day, 0.01 µM: 93.8%
  viability at 3 day, 0.03 µM: 97.3%
  viability at 3 day, 0.3 µM: 96.9%
  viability at 3 day, 1 µM: 98.8%
  viability at 3 day, 3 µM: 93%
  viability at 3 day, 9.5 µM: 72%
  viability at 3 day, 30 µM: 22.6%
[15]
  viability at 6 day, 0.03 µM: 101%
  viability at 6 day, 0.1 µM: 105%
  viability at 6 day, 0.3 µM: 110%
  viability at 6 day, 1 µM: 112%
  viability at 6 day, 3 µM: 108%
  viability at 6 day, 9.5 µM: 79.4%
  viability at 6 day, 30 µM: 18.9%
[16]
  viability at 6 day, 0.03 µM: 96.8%
  viability at 6 day, 0.1 µM: 103%
  viability at 6 day, 0.3 µM: 109%
  viability at 6 day, 1 µM: 114%
  viability at 6 day, 3 µM: 106%
  viability at 6 day, 9.5 µM: 79.5%
  viability at 6 day, 30 µM: 20.9%
[17]
  viability at 6 day, 0.03 µM: 101%
  viability at 6 day, 0.1 µM: 102%
  viability at 6 day, 0.3 µM: 111%
  viability at 6 day, 1 µM: 108%
  viability at 6 day, 3 µM: 109%
  viability at 6 day, 9.5 µM: 78.6%
  viability at 6 day, 30 µM: 18.4%
[18]
  viability at 6 day, 0.03 µM: 104%
  viability at 6 day, 0.1 µM: 111%
  viability at 6 day, 0.3 µM: 111%
  viability at 6 day, 1 µM: 113%
  viability at 6 day, 3 µM: 110%
  viability at 6 day, 9.5 µM: 80.2%
  viability at 6 day, 30 µM: 17.3%
HCC1143 cells, HCC1143, 3 day, read-out: viability Average
  viability at 3 day, 0.1 µM: 93.6%
HCC1143 cells, HCC1143, 3 day, read-out: viability Replicate 1
  viability at 3 day, 0.1 µM: 95.6%
HCC1143 cells, HCC1143, 3 day, read-out: viability Replicate 2
  viability at 3 day, 0.1 µM: 90.7%
HCC1143 cells, HCC1143, 3 day, read-out: viability Replicate 3
  viability at 3 day, 0.1 µM: 94.6%
[19]
  viability at 3 day, 0.01 µM: 107%
  viability at 3 day, 0.03 µM: 102%
  viability at 3 day, 1 µM: 103%
  viability at 3 day, 3 µM: 89.8%
  viability at 3 day, 9.5 µM: 37.6%
  viability at 3 day, 30 µM: 11.6%
[20]
  viability at 3 day, 0.01 µM: 103%
  viability at 3 day, 0.03 µM: 99.9%
  viability at 3 day, 1 µM: 104%
  viability at 3 day, 3 µM: 92.2%
  viability at 3 day, 9.5 µM: 40.7%
  viability at 3 day, 30 µM: 13.2%
[21]
  viability at 3 day, 0.01 µM: 110%
  viability at 3 day, 0.03 µM: 101%
  viability at 3 day, 1 µM: 111%
  viability at 3 day, 3 µM: 107%
  viability at 3 day, 9.5 µM: 51.7%
  viability at 3 day, 30 µM: 14.9%
[22]
  viability at 3 day, 0.01 µM: 107%
  viability at 3 day, 0.03 µM: 104%
  viability at 3 day, 1 µM: 94.5%
  viability at 3 day, 3 µM: 70.5%
  viability at 3 day, 9.5 µM: 20.5%
  viability at 3 day, 30 µM: 6.61%
[23]
  viability at 6 day, 0.01 µM: 102%
  viability at 6 day, 0.03 µM: 106%
  viability at 6 day, 0.1 µM: 106%
  viability at 6 day, 0.3 µM: 109%
  viability at 6 day, 1 µM: 103%
  viability at 6 day, 3 µM: 63.9%
  viability at 6 day, 9.5 µM: 24.9%
  viability at 6 day, 30 µM: 4.91%
[24]
  viability at 6 day, 0.01 µM: 107%
  viability at 6 day, 0.03 µM: 111%
  viability at 6 day, 0.1 µM: 107%
  viability at 6 day, 0.3 µM: 113%
  viability at 6 day, 1 µM: 102%
  viability at 6 day, 3 µM: 63.2%
  viability at 6 day, 9.5 µM: 23.5%
  viability at 6 day, 30 µM: 5.1%
[25]
  viability at 6 day, 0.01 µM: 100%
  viability at 6 day, 0.03 µM: 101%
  viability at 6 day, 0.1 µM: 106%
  viability at 6 day, 0.3 µM: 106%
  viability at 6 day, 1 µM: 101%
  viability at 6 day, 3 µM: 58.6%
  viability at 6 day, 9.5 µM: 25%
  viability at 6 day, 30 µM: 5.11%
[26]
  viability at 6 day, 0.01 µM: 99.6%
  viability at 6 day, 0.03 µM: 106%
  viability at 6 day, 0.1 µM: 106%
  viability at 6 day, 0.3 µM: 108%
  viability at 6 day, 1 µM: 107%
  viability at 6 day, 3 µM: 69.8%
  viability at 6 day, 9.5 µM: 26.3%
  viability at 6 day, 30 µM: 4.53%
[27]
  viability at 3 day, 0.1 µM: 110%
  viability at 3 day, 0.3 µM: 106%
[28]
  viability at 3 day, 0.1 µM: 122%
  viability at 3 day, 0.3 µM: 109%
[29]
  viability at 3 day, 0.1 µM: 110%
  viability at 3 day, 0.3 µM: 108%
[30]
  viability at 3 day, 0.1 µM: 97.6%
  viability at 3 day, 0.3 µM: 101%
MDA-MB-436 breast cancer cells, MDA MB436, 3 day, read-out: viability Average
  viability at 3 day, 0.01 µM: 104%
MDA-MB-436 breast cancer cells, MDA MB436, 3 day, read-out: viability Replicate 1
  viability at 3 day, 0.01 µM: 123%
